Measured values taken from patent US20200323797A1, “Treatment of Obesity-related Conditions” (INSTITUTO DE MEDICINA MOLECULAR, priority 2017, published 2020).
Several values for one entry are separate records, joined by “and”; a condition that tells them apart may be missing. Equal entries are not always repeated. Structures can show the parent of a compound that is named as a salt.

Legend:
[1] = test system: superior cervical ganglia sympathetic neurons from GCaMP3+ mice; assay: Intracellular calcium imaging of ACh-stimulated sympathetic neurons; assay type: cell-based, mouse; conditions: 15 μM drug for 24 h; 10 μM ACh for 40 s
Description: For Ca^2+ experiments, sympathetic neurons obtained from GCaMP3^+ mice. […] At 7 DIV, coverslips with sympathetic neurons from GCaMP3^+ mice were mounted on an inverted microscope with epifluorescent optics (Axiovert 135TV, Zeiss) equipped with a xenon lamp (located at a Lambda DG-4 (Sutter Instrument) and band-pass filter of 450-490 nm wavelengths. Ca^2+ measurements were performed at 37° C., as reported in Jacob et al., 2014(33) Throughout the experiments the Ach was applied focally through a drug filled micropipette placed under visual guidance over a single neuronal cell. Drug release was performed by focal pressure (10 psi for 40 s) through a Toohey Spritzer pressure System Ile (Toohey Company). […] Images were obtained every 250 ms by exciting the preparations at 450-490 nm and the emission wavelength was set to 510 nm. Neurons were imaged with a cooled CCD camera (Photometrics CoolSNAP fx), processed and analysed using the software MetaFluor (Universal laging, West Chester, Pa.). Ca^2+ levels were recorded at the cell body of neurons (manually defined over the cell profile) in the field of view and variations were estimated as changes of the fluorescence signal over the baseline (ΔF/F0=[(Fpost−Frest)/Frest]).

[2] = test system: LSL-DTR (Control) and TH-cre; LSL-DTR (Symp) mice; assay: High fat diet challenge in Control and sympathectomized (Symp) mice, 6 weeks; assay type: in vivo, mouse; conditions: for BW gain: 6 weeks HFD, 0.12 mol/kg daily IP; for Locomotor activity, total distance traveled: 10-min video-tracking, 1 h post-injection; for Plasma Glycerol levels: 2 h post-injection; for Food intake: HFD
Description: For detailed characterization refer to Pereira et al. 2017(52). Briefly, TH-cre; LSL-DTR mice were used for this experiment and LSL-DTR mice were used as controls. PEGylated Diphtheria Toxin (PEGyDT) was administered once a day for 8 consecutive days (25 ng/g of BW, IP injections). All following experiments were performed at least 24 h post the last injection.
(§1) Blood glucose was measured using a glucometer (Accu-Check, Roche). Analysis of Insulin, Triglycerides, Glycerol and FFA levels in plasma as performed using Mouse Ultrasensitive Insulin ELISA (Alpco), Triglyceride Quantification Kit (Abcam), Free Glycerol Reagent (Sigma) and Glycerol Standard Solution (Sigma), and Free Fatty Acid Quantification Kit (MAK044, Sigma), respectively according to manufacturer's instructions.
[…]. Tissues were homogenized and sonicated in homogenization buffer (1 N HCl, 1 mM EDTA, 4 mM Sodium metabisulfite), and cellular debris were pelleted by centrifugation at 20,000 g for 10 min at 4° C.). All tissue samples were normalized to total tissue protein concentration.
(§2) After 3 weeks of HFD exposure and treatment, mice were either acclimated to tracking cages for 1 week before starting the 72 h locomotion measurements using the LabMaster tracking system (TSE Systems; Bad Homburg); or filmed for 20-30 min, with a ZEISS optics camera, 1 h post injection inside their normal housing cage, for assessment of total distance traveled. Footage-records were filtered using the video editor Avidemux (Avidemux 2.7.1) and 10 or 15 min distance computations were quantified using the TrackMate tracking plugin from Fiji (Fiji; Wisconsin-Madinson).

C57BL/6 mice [3] = assay: Diet induced obesity, 10 weeks HFD with chronic treatment; assay type: in vivo, mouse
[4] = test system: SCG sympathetic neurons from C57BL/6 mice; assay: Whole cell patch-clamp electrophysiology of sympathetic neurons
C57BL/6 mice [5] = assay: Thermoregulation studies (thermography, rectal probe) during DIO; assay type: in vivo, mouse; conditions: 2 h post-injection
Description: All measurements were done in ad libitum fed mice 2 h post-injections. Rectal temperature was measured with an electronic thermometer (Precision). BAT and Tail thermographic pictures were taken using a Compact-Infrared-Thermal-Imaging-Camera (FLIR; West Mailing) and FLIR-Tools-Software (FLIR; West Mailing) to quantify local temperatures.

C57BL/6 mice [6] = assay: Acute behaviour and WAT NE content after single IP injection; assay type: in vivo, mouse
Description: NE levels were determined with an NE ELISA kit (Labor Diagnostika Nord GmbH). Tissues were homogenized and sonicated in homogenization buffer (1 N HCl, 1 mM EDTA, 4 mM Sodium metabisulfite), and cellular debris were pelleted by centrifugation at 20,000 g for 10 min at 4° C.). All tissue samples were normalized to total tissue protein concentration.
as §2

C57BL/6 mice [7] = assay: Faecal output and plasma triglycerides during HFD feeding; assay type: in vivo, mouse
Description: as §1
24 h faecal output was collected and weighed. The faeces were washed with 1×PBS and total triglyceride content was extracted by homogenization and boiling, for 2 cycles of 5 min, in 5% NP-40. Triglyceride content was measured using Triglyceride Quantification Kit (Abcam), according to manufacturer's instructions, and normalized to the weight of total faecal output.

Slc6a2 = biological target: T1, Slc6a2 (Mus musculus, UniProt O55192); assay: NE uptake by SAMs in SCG explant cultures, SLC6A2 blocker; assay type: cell-based; conditions: 100 nM Nisoxetine hydrochloride
T1 construct: CD45.2+F4/80+ cells isolated from the SCG of either B6 or Slc6a2−/− mice; from tissue; sorted CD45+F4/80+ sympathetic neuron-associated macrophages (sympathetic neurons are also present)

MAOa = biological target: T2, MAOa (Mus musculus, UniProt Q64133); assay: NE content of SAMs and medium in SCG explant cultures, MAOA blocker; assay type: cell-based; conditions: ACh-activated SCG explants; 100 μM Clorgyline, 2 hours
T2 construct: CD45.2+F4/80+ cells isolated from the SCG of either B6 or Slc6a2−/− mice; from tissue; sorted CD45+F4/80+ SAMs (neuronal MAOa may also contribute to NE in the medium)
T2 sequence (Q64133 1-526): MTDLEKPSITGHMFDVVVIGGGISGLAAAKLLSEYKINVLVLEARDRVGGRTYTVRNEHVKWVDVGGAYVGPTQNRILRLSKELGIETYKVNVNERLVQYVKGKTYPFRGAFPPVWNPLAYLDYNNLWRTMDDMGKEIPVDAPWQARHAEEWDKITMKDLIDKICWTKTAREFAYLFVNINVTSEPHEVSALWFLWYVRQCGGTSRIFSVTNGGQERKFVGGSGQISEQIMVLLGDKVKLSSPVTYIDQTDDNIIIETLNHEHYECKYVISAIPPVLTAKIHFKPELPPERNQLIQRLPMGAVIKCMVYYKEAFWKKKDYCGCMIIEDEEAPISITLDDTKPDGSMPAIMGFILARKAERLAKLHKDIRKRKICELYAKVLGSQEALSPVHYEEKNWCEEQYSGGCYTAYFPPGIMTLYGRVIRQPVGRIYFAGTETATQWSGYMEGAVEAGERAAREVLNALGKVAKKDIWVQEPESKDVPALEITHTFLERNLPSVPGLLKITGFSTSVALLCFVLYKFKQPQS
Description: SCG were removed from 4-6 weeks old mice under a stereomicroscope and placed in Dulbecco's Modified Eagle's medium (DMEM, Invitrogen, Carlsbad, Calif., U.S.A.). Ganglia were cleaned from the surrounding tissue capsule and transferred into 8-well Tissue Culture Chambers (Sarstedt, Nümbrecht, Germany) that were previously coated with poly-D-lysine (Sigma/Aldrich, Steinheim, Germany) in accordance to the manufacturers instructions. Ganglia were then covered with 5 μl of Matrigel (BD Bioscience, San Jose, Calif., U.S.A.) and incubated for 7 min at 37° C. DMEM without phenol red (Invitrogen) supplemented with 10% fetal bovine serum (Invitrogen), 2 mM L-Glutamine (Biowest, Nuaillé, France) and nerve growth factor (Sigma/Aldrich) were subsequently added. 12 SCG explants cultures were prepared per condition. SCG ganglia were cultured for minimum 24 hours prior to further manipulation. […]
Depolarization of sympathetic neurons in TH-Cre/LSLChR2-YFP explant cultures were performed on a Yokogawa CSUX Spinning Disk confocal using the 488 nm laser line and pointing at the region of interest (ROI) for 200 μs. […] NE in the SCG explant culture medium and sorted CD45, F4/80-double positive cells was determined with NE ELISA kit (Labor Diagnostika Nord GmbH, Nordhorn, Germany, cat # BA E-5200). […]

[8] = fed-state, 2 h post-injection without access to food

T1 sequence (O55192 whole entry): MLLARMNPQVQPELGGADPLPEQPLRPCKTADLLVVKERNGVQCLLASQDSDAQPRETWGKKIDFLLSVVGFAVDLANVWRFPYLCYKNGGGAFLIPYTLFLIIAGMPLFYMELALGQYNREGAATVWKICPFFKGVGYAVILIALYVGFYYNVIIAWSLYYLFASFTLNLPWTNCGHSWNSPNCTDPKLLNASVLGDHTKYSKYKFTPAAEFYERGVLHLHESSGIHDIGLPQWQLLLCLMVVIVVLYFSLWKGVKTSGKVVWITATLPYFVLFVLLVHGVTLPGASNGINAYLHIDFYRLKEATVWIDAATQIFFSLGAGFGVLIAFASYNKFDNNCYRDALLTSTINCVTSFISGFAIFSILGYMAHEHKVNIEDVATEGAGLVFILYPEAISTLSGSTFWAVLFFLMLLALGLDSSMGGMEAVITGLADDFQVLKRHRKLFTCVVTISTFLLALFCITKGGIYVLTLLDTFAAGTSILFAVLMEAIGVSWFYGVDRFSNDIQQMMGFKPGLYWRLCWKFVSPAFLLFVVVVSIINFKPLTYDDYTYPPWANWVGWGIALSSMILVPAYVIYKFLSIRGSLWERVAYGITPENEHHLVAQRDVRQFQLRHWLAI

In the case of CC(N)Cc1ccccc1 (centres unmarked) [AMPH, Amphetamine], the “ACh-induced intracellular [Ca2+] increase, ΔF/F0” value [1] is reported as 1.71±0.05, the “NE content in inguinal WAT” value ([2]; Control mice) is reported as 2.58±0.28 ng/mg of total tissue protein and the BW gain ([2]; Control mice) is reported as 12.67±1.79%. For the same molecule, the “Locomotor activity, total distance traveled” value ([2]; Control mice) was 21.88±1.09 m, the “Plasma Glycerol levels” value ([2]; Control mice) was 89.70 ± 10.20 µg/mL and the Food intake ([2]; Control mice) was 2.08 ± 0.25 g/day. For the same molecule, the “NE content in inguinal WAT” value ([2]; Symp mice) was 1.51 ± 0.20 ng/mg, the BW gain ([2]; Symp mice) was 39.19±4.54% and the “Locomotor activity, total distance traveled” value ([2]; Symp mice) was 24.30±2.88 m. The “Plasma Glycerol levels” value ([2]; Symp mice) was 59.07 ± 7.83 µg/mL, the Food intake ([2]; Symp mice) was 2.00 ± 0.12 g/day and the Locomotor activity (C57BL/6 mice [3]; (a.u.), fourth week of HFD) was 53.72±5.27 counts/day. The “NE levels in the liver” value (C57BL/6 mice [3]; HFD fed, per total protein) was 1.327 ± 0.262 ng/mg, the “NE levels in the muscle” value (C57BL/6 mice [3]; HFD fed, per total protein) was 0.493 ± 0.030 ng/mg and the iWAT adipocyte size (C57BL/6 mice [3]; after 10 weeks of HFD) was 1152.0±58.9 μm^2. The “iWAT weight, % of total BW” value (C57BL/6 mice [3]; after 10 weeks of HFD) was 0.92±0.13%, the “NE content in iWAT” value (C57BL/6 mice [3]; after 10 weeks of HFD and treatment, per total protein) was 1.166 ± 0.263 ng/mg and the BW gain (C57BL/6 mice [3]; after 10 weeks of HFD, 0.12 mol/kg daily IP) was 20.49±2.10%. For the same molecule, the Daily food intake (C57BL/6 mice [3]; during HFD and treatment) was 2.17 ± 0.09 g/day, the “Circulating plasma insulin levels” value (C57BL/6 mice [3]; [8]) was 0.582 ± 0.020 ng/mL and the “Plasma Free Fatty Acids” value (C57BL/6 mice [3]; [8]) was 0.766 ± 0.043 µmol/mL. The “Plasma Glycerol” value (C57BL/6 mice [3]; [8]) was 11.771 ± 1.249 µmol/mL, the “TGs content in muscle” value (C57BL/6 mice [3]; per total protein) was 11.54 ± 0.17 µmol/mg and the “TGs content in the liver” value (C57BL/6 mice [3]; per total protein) was 16.23 ± 1.95 µmol/mg. The Resting membrane potential [4] was −35.70±1.02 mV, the “Changes in resting membrane potential” value ([4]; AMPH vs Vehicle, FIGS. 5A, B) was “no significant changes” and the Maximum firing frequency ([4]; current-clamp mode) was 37.60±1.07 Hz and 41.00±1.43 Hz. The “Core body temperature (rectal probe)” value (C57BL/6 mice [5]; fourth week of HFD) was 37.94±0.10 °C, the “Tail temperature at the tail base (thermography)” value (C57BL/6 mice [5]; fourth week of HFD) was 30.07±0.54 °C and the “BAT temperature (thermography)” value (C57BL/6 mice [5]; HFD fed mice, fourth week) was 38.25±0.25 °C. The “Locomotion, total distance traveled” value (C57BL/6 mice [6]; 15-min video-tracking, 1 h post-injection) was 70.45±7.54 m, the “NE content in iWAT” value (C57BL/6 mice [6]; 2 h post-injection) was 9.69 ± 1.49 ng/mg and the “NE content in gWAT” value (C57BL/6 mice [6]; 2 h post-injection, per total tissue protein) was 6.63 ± 0.58 ng/mg. For the same molecule, the Food intake (C57BL/6 mice [6]; 24 h post-injection, 0.12 mol/kg IP) was 2.57 ± 0.15 g, the “Total 24 h faecal output” value (C57BL/6 mice [7]; HFD feeding) was 0.48 ± 0.03 g and the “Faecal triglycerides (TGs) levels” value (C57BL/6 mice [7]; HFD feeding, per mg of faeces) was 1.89 ± 0.15 nmol/mg. The “Plasma TGs levels” value (C57BL/6 mice [7]; [8]) was 3.48 ± 0.01 µmol/mL.

For CNCCC(Oc1ccccc1OC)c1ccccc1 (centres unmarked) [Nisoxetine, Nisoxetine hydrochloride], the “NE accumulation in SAMs” value (Slc6a2; ACh-activated SCG explants, 2 hours) was “prevented NE accumulation in SAMs” and the “Uptake of NE by SAMs (NE content in CD45+F4/80+ cells)” value (Slc6a2; optogenetic stimulation of SCG explants) was “prevented”.

For C#CCN(C)CCCOc1ccc(Cl)cc1Cl [clorgyline, Clorgyline], the “Intracellular NE levels in SAMs” value (MAOa) was “nearly double intracellular NE levels” and the “NE levels in medium” value (MAOa) was “increased NE levels in medium”.
